For one molecule, EC50 results are on record in PMC2217384 (The Journal of General Physiology, 2003).

By EC50 is commonly meant the concentration needed to bring the measured effect to its halfway point. A higher EC50 goes with a less potent agent.

The target in this assay is T1, P2X1 receptor (Rattus norvegicus, UniProt P47824).
T1 sequence (P47824 1-399): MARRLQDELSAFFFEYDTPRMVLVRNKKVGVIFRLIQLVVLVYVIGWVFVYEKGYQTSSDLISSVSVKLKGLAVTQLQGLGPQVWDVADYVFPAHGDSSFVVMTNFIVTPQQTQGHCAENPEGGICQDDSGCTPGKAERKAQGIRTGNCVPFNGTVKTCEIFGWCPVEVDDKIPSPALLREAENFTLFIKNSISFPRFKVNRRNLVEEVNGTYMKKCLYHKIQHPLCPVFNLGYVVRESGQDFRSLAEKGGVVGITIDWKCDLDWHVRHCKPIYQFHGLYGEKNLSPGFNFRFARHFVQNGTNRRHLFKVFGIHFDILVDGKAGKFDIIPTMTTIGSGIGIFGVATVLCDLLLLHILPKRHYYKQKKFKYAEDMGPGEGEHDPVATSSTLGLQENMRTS
Description: two-electrode voltage clamp in Xenopus oocytes. The assay is classed as cell-based.

Molecule `Nc1ncnc2c1ncn2[C@@H]1O[C@H](COP(=O)(O)OP(=O)(O)OP(=O)(O)O)[C@@H](O)[C@H]1O` [ATP] showed an EC50 of 700 ± 60 nM.
